From ChEMBL document CHEMBL3137440, “DNDi T. cruzi fenarimol series dataset from which preclinical candidate EPL-BS0967 was identified (see also related datasets: CHEMBL3137386 and CHEMBL2448688)”
Converted amounts (≈) assume the structure as drawn.

Experiments:
Trypanosoma cruzi [1] = experiment: (§1) DNDI: Chagas in Vitro; type: functional, Tulahuen C4 (LacZ)
Trypanosoma cruzi [2] = experiment: as §1; type: functional, organism-based, Tulahuen C4 (LacZ)
[3] = DNDI: Cytotoxicity against L-6 rat myoblasts from skeletal musclE; conditions: L6 rat skeletal muscle myoblasts, IC50
Cytochrome P450 3A4 = Cytochrome P450 3A4 (Homo sapiens, UniProt P08684)
in vitro [4] = conditions: human, microsomes
[5] = DNDI: Solubility in 0.01M HCl at pH 2 determined by nephelometry
[6] = DNDI: Lipophilicity (gLogD) at pH 7.4; conditions: buffer
in vitro [7] = conditions: human, microsomes; remark: listed apart in the source
[8] = DNDI: Solubility in phosphate buffer at pH 6.5 determined by nephelometry
[9] = DNDI: Lipophilicity (gLogD) at pH 3; conditions: buffer
in vitro [10] = conditions: human, microsomes; remark: listed apart in the source
[11] = Trypanosoma cruzi, Tulahuen C4 (LacZ)

Chain of Cytochrome P450 3A4 (P08684 whole entry): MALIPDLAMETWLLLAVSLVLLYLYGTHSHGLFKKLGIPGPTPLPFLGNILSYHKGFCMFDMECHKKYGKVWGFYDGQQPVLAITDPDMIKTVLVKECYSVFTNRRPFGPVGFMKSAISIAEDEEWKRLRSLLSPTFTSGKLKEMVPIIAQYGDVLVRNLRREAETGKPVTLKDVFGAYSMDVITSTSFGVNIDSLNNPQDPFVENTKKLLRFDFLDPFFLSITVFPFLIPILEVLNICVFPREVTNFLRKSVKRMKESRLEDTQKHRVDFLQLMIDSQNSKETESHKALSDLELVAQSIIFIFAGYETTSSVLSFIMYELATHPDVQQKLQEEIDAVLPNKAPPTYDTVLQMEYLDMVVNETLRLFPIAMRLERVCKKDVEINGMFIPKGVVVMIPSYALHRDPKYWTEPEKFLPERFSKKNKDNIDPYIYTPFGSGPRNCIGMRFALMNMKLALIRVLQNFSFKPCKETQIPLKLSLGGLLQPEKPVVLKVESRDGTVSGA

SMILES | IC90 (Trypanosoma cruzi [1]; [11]) [nM] | IC50 (Trypanosoma cruzi [2]; [11]) [nM] | IC50 (Cytochrome P450 3A4) [nM] | half-life (in vitro [4]) [min] | chromatographic logD ([6]; pH 7.4) | microsomal CLint (in vitro [7]) [µL/min/mg] | solubility kinetic [8] [µg/mL] | chromatographic logD ([9]; pH 3) | hepatic extraction ratio (in vitro [10]) | IC90 (Trypanosoma cruzi [1]) [nM] | IC50 (Trypanosoma cruzi [2]) [nM] | IC50 [3] [nM] | solubility kinetic [5] [µg/mL] | half-life (in vitro [4]; t (1 / 2)) [min] | chromatographic logD ([6]; pH 7.4, logD) | microsomal CLint (in vitro [7]; CLint) [µL/min/mg] | chromatographic logD ([9]; pH 3, logD) | hepatic extraction ratio (in vitro [10]; EH)
CC(C)(C)OC(=O)N1CCC(N(c2ccc(C(F)(F)F)cc2)c2cccnc2)CC1 | 9.9 | 5.12 |  |  |  |  |  |  |  |  |  | 22200 |  |  |  |  |  | 
Cn1nc(C2CC2)cc1N1CCC(N(c2ccc(C(F)(F)F)cc2)c2cccnc2)CC1 | 13.5 | 7 | > 20000 | 14.6 | 4.8 | 118 | < 1.6 | 4.6 | 0.87 |  |  | 30000 | 50 (≈ 113 µM) |  |  |  |  | 
CCC(C(C)O)N1CCC(N(c2ccc(C(F)(F)F)cc2)c2cccnc2)CC1 (centres undefined) | > 100 | 61 | 17000 |  |  |  | 25 (≈ 61.4 µM) |  |  |  |  | 49600 | > 100 | 35.8 | 4.3 | 48.4 | 1.6 | 0.73
CC(C)C(O)CN1CCC(N(c2ccc(C(F)(F)F)cc2)c2cccnc2)CC1 (centres undefined) | > 10000 | 36 | > 20000 |  |  |  | 25 (≈ 61.4 µM) |  |  |  |  | 51500 | > 100 | 29.8 | 3.9 | 58.2 | 1.6 | 0.76
FC(F)(F)c1ccc(N(c2cccnc2)C2CCN(Cc3ccccc3C(F)(F)F)CC2)cc1 | 36 | 9 |  |  |  |  | 1.6 (≈ 3.34 µM) |  |  |  |  |  | > 100 | 18.7 | > 5.3 | 92.8 | 2.7 | 
CC(C)(O)CN1CCC(N(c2ccc(C#N)cc2)c2cccnc2)CC1 | 71 | 27 |  |  |  |  | > 100 |  |  |  |  | > 100000 | > 100 | 142 | 2.2 | 12.2 | 0.7 | 
FC(F)(F)c1ccc(N(c2cccnc2)C2CCN(Cc3cccc(C(F)(F)F)c3)CC2)cc1 | 72 | 38 |  |  |  |  | 3.1 (≈ 6.47 µM) |  |  |  |  | 52100 | > 100 | 26 | > 5.3 | 66 | 2.5 | 
CS(=O)(=O)c1ccc(N2CCC(N(c3ccc(C#N)cc3)c3cccnc3)CC2)cc1 | 6.6 | 2.35 |  | 111 | 3 | 15.6 | 1.6 (≈ 3.7 µM) | 2.7 | 0.47 |  |  | > 100000 |  |  |  |  |  | 
COc1cccc(CN2CCC(N(c3ccc(C(F)(F)F)cc3)c3cccnc3)CC2)c1 | 90 | 56 |  |  |  |  |  |  |  |  |  | 36800 |  |  |  |  |  | 
Fc1cnc(N2CCC(N(c3ccc(C(F)(F)F)cc3)c3cccnc3)CC2)nc1 | 28 | 22 |  | 49 | 4.9 | 36 | < 1.6 | 4.2 |  |  |  | 53100 | > 100 |  |  |  |  | 

The next lines start with results.

IC90 (Trypanosoma cruzi [1]; [11]) [nM] | IC50 (Trypanosoma cruzi [2]; [11]) [nM] | IC50 (Cytochrome P450 3A4) [nM] | half-life (in vitro [4]) [min] | chromatographic logD ([6]; pH 7.4) | microsomal CLint (in vitro [7]) [µL/min/mg] | solubility kinetic [8] [µg/mL] | chromatographic logD ([9]; pH 3) | hepatic extraction ratio (in vitro [10]) | IC90 (Trypanosoma cruzi [1]) [nM] | IC50 (Trypanosoma cruzi [2]) [nM] | SMILES | IC50 [3] [nM] | solubility kinetic [5] [µg/mL] | half-life (in vitro [4]; t (1 / 2)) [min] | chromatographic logD ([6]; pH 7.4, logD) | microsomal CLint (in vitro [7]; CLint) [µL/min/mg] | chromatographic logD ([9]; pH 3, logD) | hepatic extraction ratio (in vitro [10]; EH)
28 | 10 |  |  |  |  |  |  |  |  |  | CN(C)S(=O)(=O)c1ccccc1N1CCC(N(c2ccc(C#N)cc2)c2cccnc2)CC1 |  |  |  |  |  |  | 
31 |  |  | 10.8 | 4.3 | 161 | 1.6 (≈ 3.96 µM) | 3.1 |  |  |  | FC(F)(F)c1ccc(N(c2cccnc2)C2CCN(c3nccs3)CC2)cc1 | 41500 | > 100 |  |  |  |  | 
 |  |  |  |  |  |  |  |  | > 100 | 19.7 | FC(F)(F)c1ccc(N(c2cccnc2)C2CCN(c3ccc(C(F)(F)F)cn3)CC2)cc1 |  |  |  |  |  |  | 
4 | 2 |  |  |  |  |  |  |  |  |  | N#Cc1ccc(N(c2cccnc2)C2CCN(c3ccc(C(F)(F)F)cc3C#N)CC2)cc1 | > 100000 |  |  |  |  |  | 
11 | 6 |  |  |  |  |  |  |  |  |  | CN(C)S(=O)(=O)c1cc(C(F)(F)F)ccc1N1CCC(N(c2ccc(C#N)cc2)c2cccnc2)CC1 | > 100000 |  |  |  |  |  | 
51 | 24 |  |  |  |  |  |  |  |  |  | FC(F)(F)c1ccc(N(c2cccnc2)C2CCN(c3ccccn3)CC2)cc1 |  |  |  |  |  |  | 
32 |  |  |  |  |  |  |  |  |  |  | FC(F)(F)c1ccc(N(c2cccnc2)C2CCN(c3ccc(C(F)(F)F)nc3)CC2)cc1 |  |  |  |  |  |  | 
10.5 | 5 | > 20000 | 16.8 | > 5.3 | 103 | < 1.6 | 4.7 | 0.85 |  |  | N#Cc1cc(C(F)(F)F)ccc1N1CCC(N(c2ccc(Cl)cc2)c2cccnc2)CC1 | 17700 | 25 (≈ 54.7 µM) |  |  |  |  | 
11 | 7 | > 20000 | 32.8 | > 5.3 | 52.9 | < 1.6 | 5.2 | 0.75 |  |  | N#Cc1cc(C(F)(F)F)ccc1N1CCC(N(c2ccc(C(F)(F)F)cc2)c2cccnc2)CC1 | 24300 | 12.5 (≈ 25.5 µM) |  |  |  |  | 
340 | 151 |  |  |  |  |  |  |  |  |  | Cc1ccc(N2CCC(N(c3ccc(C(F)(F)F)cc3)c3cccnc3)CC2)cn1 | > 100000 |  |  |  |  |  | 
